From US20250136563A1, “THIADIAZOLONE DERIVATIVES USEFUL AS AMPK ACTIVATOR” (Betagenon AB, priority 2021, published 2025) come the findings set out here.

Structures are written as SMILES. “Also recorded” adds a separate entry of the source.

Data set [1] in a line: Stability in HCl buffer (pH 1.20), 37° C. Format: physicochemical. The note with it: for % remaining compared to 0.0 min: HCl buffer pH 1.20, 37° C. As to the method: 5 μM solutions of Compound 1 and Compound 4 (i.e. the citric acid salt of Compound 3) in HCl buffer (pH: 1.20) were prepared with 5 mM DMSO stock solutions.
The subject of the next data set is AMPK. The experiment in a line: Activation of AMPK: Western blot of p-T172 AMPKα in INS-1E insulinoma cells. Type of data set: cell-based. The settings on record: for ratio between p-T172 AMPK and non-phosphorylated AMPK: INS-1E cells, 4 h, control 1.00. As to the method: INS-1E cells were cultivated as described in Steneberg et al., JCI Insight. 2018; 3(12):e99114. https://doi.org/10.1172/jci.insight.99114, using 5% instead of 10% fetal bovine serum when plated for treatment.
Compound 3 was dissolved at 10 mM in DMSO and frozen at −20° C.
The INS-1E cells were treated in serum free medium with increasing doses of Compound 3 for 4 hours in accordance with the methods described in Steneberg et al., JCI Insight. 2018; 3(12):e99114. https://doi.org/10.1172/jci.insight.99114.
Western blot analysis of the INS-1E cells was performed as described in Steneberg et. al., JCI Insight. 2018; 3(12):e99114. https://doi.org/10.1172/jci.insight.99114. The cell lysates were passed through a 30-gauge needle, ˜8-times and centrifuged for 10 min at +4° C. at 14000 rpm. Quantified values for AMPKα, and phosphorylated-T172 AMPKα, were normalized toward the quantified values for β-Actin.
On the technique in general: In western blotting, separated proteins are transferred to a membrane and probed.

Data set [2] is described as follows: Single dose oral pharmacokinetic study of Compounds 1 and 3 in Sprague Dawley rats. The settings on record: equimolar doses. Format: in vivo. As to the method:
10.0 mL of 2% w/v methyl cellulose solution in phosphate buffer (pH 7.5) was added to a 100 mL conical flask along with 1 g of 2 mm glass beads. The solution was vigorously stirred on a magnetic stirrer. 100 mg of Compound 1 was slowly added to the solution, and the solution was vigorously stirred for approximately 1 h. The pH of the formulation was measured to be 7.49. Each formulation was freshly prepared prior to administration to the animals. The final concentration of Compound 1 in of the formulation was 10 mg/mL. The formulation was administered at 5 mL/kg body weight.
6 mL of 2% w/v methyl cellulose solution in phosphate buffer (pH 7.5) was added to a 25 mL of conical flask together with 1 g of 2 mm glass beads. The solution was vigorously stirred on a magnetic stirrer. 78 mg of Compound 3 was slowly added to the solution, and the solution was vigorously stirred for approximately 1 h. The pH of the formulation was measured to be 7.41. […]
The results for the single dose oral pharmacokinetic study in rats are tabulated in Tables 5 and 6 below and are shown graphically in FIG. 2. In Table 5, the Cmax, Tmax, AUClast, AUCinf, AUCextrap, T1/2 and MRTlast values are for 4-chloro-N-[2-[(4-chlorophenyl)methyl]-3-oxo-1,2,4-thiadiazol-5-yl]benzamide (Compound 1), which was detected following the administration of both Compounds 1 and 3.

Data set [3] in a line: Stability in buffers pH 1.20, 7.40 and 9.20 (Examples 26 and 27).
Procedure: The stability of Compound 17 was assessed in buffers with pH 1.20, 7.40 and 9.20. The pH 1.20 study was conducted using an HCl buffer. A phosphate buffer was used for the pH 7.40 medium, and an alkaline borate buffer was used for the pH 9.20 medium.
HCl buffer—Potassium chloride (1.491 g) was dissolved in 100 mL of Ultrapure water type-1 to get 0.2 M KCl solution. About 50 mL of 0.2 M KCl was taken in a beaker and the pH was adjusted to 1.20 using 0.2 M HCl solution. The final volume was made up to 200 mL using Ultrapure water type-1 and stored at room temperature (22±3° C.).
Phosphate buffer—Potassium phosphate monobasic (2.722 g) was dissolved in 100 mL of Ultrapure water type-1 to get 0.2 M solution. About 50 mL of 0.2 M solution was taken in a beaker and the pH was adjusted to 7.40 using 0.2 M NaOH solution. The final volume was made up to 200 mL using Ultrapure water type-1 and stored at room temperature (22±3° C.).
Alkaline borate buffer—Boric acid (1.237 g) and potassium chloride (1.491 g) were dissolved in 100 mL of Ultrapure water type-1 to get 0.2 M solution. About 50 mL of 0.2 M solution was taken in beaker and the pH was adjusted to 9.20 using 0.2 M NaOH solution. The final volume was made up to 200 mL using Ultrapure water type-1 and stored at room temperature (22±3° C.).
5 μM solutions of Compound 17 in each buffer were prepared with 5 mM DMSO stock solutions. The solutions were incubated at 22 t 3° C. for 120 minutes, with shaking at 400 rpm using a thermomixer.
After 0, 15, 30, 60 and 120 minute intervals, aliquots of sufficient volume of the compound solutions were taken, diluted and analysed to determine the stability of Compound 17 in each solution, as well as the amount of Compound 1 present. The amount of Compound 1 present was compared to the amount expected assuming full conversion of Compound 17 to Compound 1.
The stability of Compounds 3, 6, 9, 20 and 23 was tested using the same methods as described above for Compound 17.

As for `CN(C)CC(=O)OCn1c(=O)n(Cc2ccc(Cl)cc2)s/c1=N\C(=O)c1ccc(Cl)cc1` [Compound 3, Dimethylamino-Acetic Acid 5-[(Z)-4-chloro-benzoylimino]-2-(4-chloro-benzyl)-3-oxo-[1,2,4]thiadiazolidin-4-ylmethyl Ester], the “% remaining compared to 0.0 min” value in data set [1] (0.0 min) stood at 100.00%; in data set [1] (15 min), 96.92%; in data set [1] (30 min), 83.74%; in data set [1] (60 min), 86.54%; in data set [1] (120 min), 88.31%. For the same molecule, the “stability in acidic solutions (in words)” value in data set [1] (pH 1.2) is recorded as “greater stability than Compound 1”. Also, the results for the “ratio between p-T172 AMPK and non-phosphorylated AMPK” value with AMPK (1.25 μM), with AMPK (2.5 μM) and in the data set on AMPK (5 μM) were 1.24, 2.24 and 5.99, respectively. Besides, the “phosphorylation of AMPK (in words)” value with AMPK (cultured INS-1E cells) is on record as “increases phosphorylation of AMPK in a dose-dependent manner; also recorded: increases phosphorylated-T172 AMPK in a dose-dependent manner”. For the same molecule, the “increase in systemic exposure of Compound 1 after oral Compound 3 versus oral Compound 1” value in data set [2] is “ten-fold”. Moreover, the “% remaining after 15 min” value in data set [3] (buffer pH 1.2) is on record as 97%; in data set [3] (buffer pH 7.4), 46%. In addition, the “% remaining after 30 min” value in data set [3] (buffer pH 1.2) stood at 83%; in data set [3] (buffer pH 7.4), 16%.
